Among the data in patent publication US20240327393A1 (SIRONAX LTD., priority 2021, published 2024) are EC50 values, retold here.

One experiment deals with HT-1080 (ATCC, CCL-121) cells. Briefly: HT-1080 cell viability assay with ferroptosis inducer RSL3 (Cell Titer-Glo). The format is cell-based. To be noted: Homo sapiens; HT-1080 cells treated with RSL3; 3-fold, 10-point dilution, 1.1 μM highest concentration; Table 2; read-out: EC50 (nM), ferroptosis inhibitory activity. In outline:
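EC50 was derived by sigmoidal dose-response regression of CellTiter-Glo luminescence viability, expressed relative to untreated wells. Compounds were tested in a ten-point, threefold dilution series (highest 1.1 μM) in the presence of the ferroptosis inducer RSL3. HT-1080 cells had been seeded at 6000 per well and grown overnight first.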
(In general: Cellular ATP, detected with luciferase, serves as a proxy for viable cell number.)
In general, EC50 refers to the midpoint of the concentration-response curve. `CC1CN(c2ccc3cc(Nc4ccc5c(c4)OCC(=O)N5C)ccc3n2)CC(C)O1` (stereo not shown) [Compound 65, 7-((2-(2,6-dimethylmorpholino)quinolin-6-yl)amino)-4-methyl-2H-benzo[b][1,4]oxazin-3(4H)-one]: the EC50 fell in the range of 0.1 to 100 nM.

Turning to `COc1cc(Nc2ccc(N3CCC(C(F)(F)F)CC3)cc2)cc2c1oc(=O)n2C` [Compound 400, 7-methoxy-3-methyl-5-((4-(4-(trifluoromethyl)piperidin-1-yl)phenyl)amino)benzo[d]oxazol-2(3H)-one], the EC50 lay within 0.1 to 100 nM. On to `Cc1cc(N2CCC(C)CC2)c(Cl)cc1Nc1ccc2c(c1)n(C)c(=O)n2C` [Compound 265, 5-((5-chloro-2-methyl-4-(4-methylpiperidin-1-yl)phenyl)amino)-1,3-dimethyl-1,3-dihydro-2H-benzo[d]imidazol-2-one], for which the concentration giving a half-maximal response (EC50) lay within 0.1 to 100 nM.

As for `Cc1cc2c(cc1Nc1ccc(N3CCC(C(F)(F)F)CC3)cc1)OCC(=O)N2C` [Compound 157], the EC50 fell in the range of 0.1 to 100 nM.

`CCN(CC)c1nc2ccc(Nc3ccc(N4CCC(C(F)(F)F)CC4)cc3)cc2n1C` [Compound 402, N2,N2-diethyl-1-methyl-N6-(4-(4-(trifluoromethyl)piperidin-1-yl)phenyl)-1H-benzo[d]imidazole-2,6-diamine]: the concentration giving a half-maximal response (EC50) lay in the range of 0.1 to 100 nM. On to `CN1C(=O)COc2cc(Nc3ccc(N4CCC(C(F)(F)F)CC4)nc3)ccc21` [Compound 17, 4-methyl-7-((6-(4-(trifluoromethyl)piperidin-1-yl)pyridin-3-yl)amino)-2H-benzo[b][1,4]oxazin-3(4H)-one], for which the concentration giving a half-maximal response (EC50) lay within 0.1 to 100 nM.

As for `O=C1COc2cc(Nc3cc(F)c(N4CCC(C(F)(F)F)CC4)c(F)c3)ccc2N1` [Compound 136, 7-((3,5-difluoro-4-(4-(trifluoromethyl)piperidin-1-yl)phenyl)amino)-2H-benzo[b][1,4]oxazin-3(4H)-one], the 50% effective concentration (EC50) is 0.1 to 100 nM.

Turning to `NC(=O)n1ncc2cc(Nc3ccc(N4CCC(C(F)(F)F)CC4)cc3)ccc21` [Compound 398, 5-((4-(4-(trifluoromethyl)piperidin-1-yl)phenyl)amino)-1H-indazole-1-carboxamide], the EC50 is 0.1 to 100 nM.

`Cn1cc(C(N)=O)c2cc(Nc3ccc(N4CCC(C(F)(F)F)CC4)cc3)ccc21` [Compound 383, 1-methyl-5-((4-(4-(trifluoromethyl)piperidin-1-yl)phenyl)amino)-1H-indole-3-carboxamide]: the 50% effective concentration (EC50) fell in the range of 0.1 to 100 nM.

Take `CC1CN(c2ccc(Nc3ccc4nnn(C)c4c3)cc2)CC(C)O1` (stereo not shown) [Compound 133, N-(4-(2,6-dimethylmorpholino)phenyl)-1-methyl-1H-benzo[d][1,2,3]triazol-6-amine]: the EC50 lay in the range of 100 to 1000 nM.

On to `CC1CCN(c2ccc(Nc3ccc4c(c3)n(C)c(=O)n4C)cc2Cl)CC1` [Compound 298, 5-((3-chloro-4-(4-methylpiperidin-1-yl)phenyl)amino)-1,3-dimethyl-1,3-dihydro-2H-benzo[d]imidazol-2-one], for which the EC50 was in the range of 0.1 to 100 nM.

Turning to `NC(=O)NCCn1c(=O)oc2ccc(Nc3ccc(N4CCC(C(F)(F)F)CC4)cc3)cc21` [Compound 417, 1-(2-(2-oxo-5-((4-(4-(trifluoromethyl)piperidin-1-yl)phenyl)amino)benzo[d]oxazol-3(2H)-yl)ethyl)urea], the EC50 was 0.1 to 100 nM. Same read-out and setting: the same measure for `Cc1cc(C)cc(Nc2ccc3c(c2)CN(C)C3=O)c1` [Compound 226, 5-((3,5-dimethylphenyl)amino)-2-methylisoindolin-1-one]: 0.1 to 100 nM. The same measure, in the same setting: the result for `Cc1c(Nc2ccc3c(c2)n(C)c(=O)n3C)ccc(N2CCC(C)CC2)c1C` [Compound 281, 5-((2,3-dimethyl-4-(4-methylpiperidin-1-yl)phenyl)amino)-1,3-dimethyl-1,3-dihydro-2H-benzo[d]imidazol-2-one] reads 0.1 to 100 nM.

For the compound `CN1C(=O)COc2cc(Nc3ccc4c(c3)CC(C)(C)C4)ccc21` [Compound 49, 7-((2,2-dimethyl-2,3-dihydro-1H-inden-5-yl)amino)-4-methyl-2H-benzo[b][1,4] oxazin-3(4H)-one], the half-maximal effective concentration (EC50) lay in the range of 0.1 to 100 nM. On the same count and under the same terms, the same measure for `CN1Cc2cc(Nc3ccc(N4CC5(CCC5)C4)cc3)ccc2C1=O` [Compound 244, 5-((4-(2-azaspiro[3.3]heptan-2-yl)phenyl)amino)-2-methylisoindolin-1-one]: 0.1 to 100 nM. Same read-out and setting: the result for `CCCCCN(CCCCOC)c1ccc(Nc2ccc3c(c2)OCC(=O)N3C)cc1` [Compound 4, 7-((4-((4-methoxybutyl)(pentyl)amino)phenyl)amino)-4-methyl-2H-benzo[b][1,4]oxazin-3(4H)-one] reads 0.1 to 100 nM; that for `Cn1c(=O)c2ccc(Nc3ccc(N4CCC(C(F)(F)F)CC4)cc3)cc2n1C` [Compound 224, 1,2-dimethyl-6-((4-(4-(trifluoromethyl)piperidin-1-yl)phenyl)amino)-1,2-dihydro-3H-indazol-3-one], 0.1 to 100 nM. Same read-out and setting: the same measure for `Cn1c(=O)n(C)c2cc(Nc3ccc(N4CCC(C(F)(F)F)CC4)nc3)ccc21` [Compound 362, 1,3-dimethyl-5-((6-(4-(trifluoromethyl)piperidin-1-yl)pyridin-3-yl)amino)-1,3-dihydro-2H-benzo[d]imidazol-2-one]: 0.1 to 100 nM; for `Cn1c(=O)n(C)c2cc(Nc3ccsc3)ccc21` [Compound 342, 1,3-dimethyl-5-(thiophen-3-ylamino)-1,3-dihydro-2H-benzo[d]imidazol-2-one]: 100 to 1000 nM; for `O=C1c2ccc(Nc3ccc(N4CCC(C(F)(F)F)CC4)cc3)cc2CN1C1CCOCC1` [Compound 258, 2-(tetrahydro-2H-pyran-4-yl)-5-((4-(4-(trifluoromethyl)piperidin-1-yl)phenyl)amino)isoindolin-1-one]: 0.1 to 100 nM.

Staying with this experiment, now noted: Homo sapiens; HT-1080 cells treated with RSL3; 3-fold, 10-point dilution, 1.1 μM highest concentration; Table 3; read-out: EC50 (nM), ferroptosis inhibitory activity.
On to `COc1cc(Nc2ccc3c(c2)OCC(=O)N3)c(C)cc1N1CCC(C(F)(F)F)CC1` [Compound 546, 7-((5-methoxy-2-methyl-4-(4-(trifluoromethyl)piperidin-1-yl)phenyl)amino)-2H-benzo[b][1,4]oxazin-3(4H)-one], for which the concentration giving a half-maximal response (EC50) lay within 0.1 to 100 nM. Still for that read-out and setting: the same measure for `Cc1c(Nc2ccc(N3CCC(C(F)(F)F)CC3)cc2)ccc2c1OCC(=O)N2` [Compound 568, 8-methyl-7-((4-(4-(trifluoromethyl)piperidin-1-yl)phenyl)amino)-2H-benzo[b] [1,4] oxazin-3(4H)-one]: 0.1 to 100 nM; for `CC1CCN(c2ccc(Nc3cnc4c(c3)OCC(=O)N4)cc2)CC1` [Compound 596, 7-((4-(4-methylpiperidin-1-yl)phenyl)amino)-2H-pyrido[3,2-b][1,4]oxazin-3(4H)-one]: 0.1 to 100 nM. On the same count and under the same terms, the result for `Cc1cc(N2CC(C(F)(F)F)C2)ccc1Nc1ccc2c(c1)OCCC(=O)N2` [Compound 590] reads 0.1 to 100 nM; that for `Cc1cc(N2CCC(C(F)(F)F)CC2)ccc1Nc1ccc2c(c1)SCC(=O)N2` [Compound 593, 7-((2-methyl-4-(4-(trifluoromethyl)piperidin-1-yl)phenyl)amino)-2H-benzo[b][1,4]thiazin-3(4H)-one], 0.1 to 100 nM; that for `CC1CCN(c2ccc(Nc3ccc4c(c3)OCC(=O)N4)cc2)CC1` [Compound 507, 7-((4-(4-methylpiperidin-1-yl)phenyl)amino)-2H-benzo[b][1,4]oxazin-3(4H)-one], 0.1 to 100 nM. Same read-out and setting: the same measure for `Cc1nc(N2CC(C)(C)OC(C)(C)C2)ccc1Nc1ccc2c(c1)OCC(=O)N2` [Compound 504]: 0.1 to 100 nM; for `O=C1COc2cc(Nc3ccc(N4CCC(C(F)(F)F)CC4)cn3)ccc2N1` [Compound 476]: 0.1 to 100 nM. As for `CCc1nc(N2C[C@@H](C)O[C@@H](C)C2)ccc1Nc1ccc2c(c1)OCC(=O)N2` [Compound 522, 7-((6-((2S,6R)-2,6-dimethylmorpholino)-2-ethylpyridin-3-yl)amino)-2H-benzo[b][1,4]oxazin-3(4H)-one], the EC50 lay in the range of 0.1 to 100 nM. Same read-out and setting: the result for `Cc1cc(N2CCC(C(F)(F)F)CC2)ccc1Nc1cc(C#N)c2c(c1)OCC(=O)N2` [Compound 468, 7-((2-methyl-4-(4-(trifluoromethyl)piperidin-1-yl)phenyl)amino)-3-oxo-3,4-dihydro-2H-benzo[b][1,4]oxazine-5-carbonitrile] reads 0.1 to 100 nM; that for `Cc1cc(N2CCC(F)CC2)ccc1Nc1ccc2c(c1)OCC(=O)N2` [Compound 518, 7-((4-(4-fluoropiperidin-1-yl)-2-methylphenyl)amino)-2H-benzo[b][1,4]oxazin-3(4H)-one], 0.1 to 100 nM. Still for that read-out and setting: the result for `COC1(C)CN(c2ccc(Nc3ccc4c(c3)OCC(=O)N4)c(C)c2)C1` [Compound 639, 7-((4-(3-methoxy-3-methylazetidin-1-yl)-2-methylphenyl)amino)-2H-benzo[b][1,4] oxazin-3(4H)-one] reads 0.1 to 100 nM. Still for that read-out and setting: the result for `Cc1cc(N2CCC(F)C2)ccc1Nc1ccc2c(c1)OCC(=O)N2` (stereo not shown) [Compound 599, 7-{[4-(3-fluoropyrrolidin-1-yl)-2-methylphenyl]amino}-2,4-dihydro-1,4-benzoxazin-3-one] reads 0.1 to 100 nM; that for `Cc1cc(N2CCC(C(F)(F)F)CC2)ccc1Nc1ccc2oc(=O)[nH]c2c1` [Compound 467, 5-((2-methyl-4-(4-(trifluoromethyl)piperidin-1-yl)phenyl)amino) benzo[d]oxazol-2(3H)-one], 0.1 to 100 nM.

As to `Cc1cc(N2CC(F)(F)C(F)(F)C2)ccc1Nc1ccc2c(c1)OCC(=O)N2` [Compound 636, 7-((2-methyl-4-(3,3,4,4-tetrafluoropyrrolidin-1-yl)phenyl)amino)-2H-benzo[b][1,4]oxazin-3(4H)-on], the EC50 fell in the range of 0.1 to 100 nM. On the same count and under the same terms, the same measure for `Cc1cc(N2CC(OC(F)F)C2)ccc1Nc1ccc2c(c1)OCC(O)C(=O)N2` (stereo not shown) [Compound 658, 8-[4-[3-(difluoromethoxy)azetidin-1-yl]-2-methyl-anilino]-3-hydroxy-3,5-dihydro-2H-1,5-benzoxazepin-4-one]: 0.1 to 100 nM.
